Results reported in ChEMBL document CHEMBL4507269, “Data for DCP probe BAY-386” (2021).

What was measured:
[1] = test system: Epidermal growth factor receptor (Homo sapiens), P00533 [L858R,T790M]; details: Compound concentration 1000.0 nM
[2] = target: G protein-coupled receptor kinase 4 (Homo sapiens) (UniProt P32298); details: Compound concentration 1000.0 nM
[3] = test system: ALK tyrosine kinase receptor (Homo sapiens), Q9UM73 [C1156Y]; details: Compound concentration 1000.0 nM
[4] = target: Mitogen-activated protein kinase kinase kinase 13 (Homo sapiens) (UniProt O43283); details: Compound concentration 1000.0 nM
[5] = target: Dual specificity mitogen-activated protein kinase kinase 5 (Homo sapiens) (UniProt Q13163); details: Compound concentration 1000.0 nM
[6] = target: LIM domain kinase 2 (Homo sapiens) (UniProt P53671); details: Compound concentration 1000.0 nM
[7] = target: Serine/threonine-protein kinase Nek11 (Homo sapiens) (UniProt Q8NG66); details: Compound concentration 1000.0 nM
[8] = target: T1, 5-hydroxytryptamine receptor 1A (Homo sapiens) (UniProt P08908); details: Compound concentration 10.0 uM
T1 sequence (whole entry): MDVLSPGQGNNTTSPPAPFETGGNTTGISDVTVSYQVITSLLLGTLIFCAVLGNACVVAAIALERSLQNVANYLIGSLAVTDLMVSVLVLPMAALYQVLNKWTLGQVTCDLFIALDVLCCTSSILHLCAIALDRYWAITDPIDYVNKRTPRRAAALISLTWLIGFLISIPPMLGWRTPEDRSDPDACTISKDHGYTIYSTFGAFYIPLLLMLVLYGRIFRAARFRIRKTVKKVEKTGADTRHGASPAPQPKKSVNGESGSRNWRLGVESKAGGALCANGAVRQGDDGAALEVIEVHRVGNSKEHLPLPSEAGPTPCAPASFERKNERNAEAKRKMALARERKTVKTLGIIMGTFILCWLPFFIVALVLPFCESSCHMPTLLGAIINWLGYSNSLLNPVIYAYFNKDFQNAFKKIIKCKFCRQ

[9] = target: T2, Alpha-2A adrenergic receptor (Homo sapiens) (UniProt P08913); assay: alpha2A (h) Eurofins-Cerep Cellular and Nuclear Receptor Functional Assays; details: Compound concentration 10.0 uM
T2 sequence (whole entry): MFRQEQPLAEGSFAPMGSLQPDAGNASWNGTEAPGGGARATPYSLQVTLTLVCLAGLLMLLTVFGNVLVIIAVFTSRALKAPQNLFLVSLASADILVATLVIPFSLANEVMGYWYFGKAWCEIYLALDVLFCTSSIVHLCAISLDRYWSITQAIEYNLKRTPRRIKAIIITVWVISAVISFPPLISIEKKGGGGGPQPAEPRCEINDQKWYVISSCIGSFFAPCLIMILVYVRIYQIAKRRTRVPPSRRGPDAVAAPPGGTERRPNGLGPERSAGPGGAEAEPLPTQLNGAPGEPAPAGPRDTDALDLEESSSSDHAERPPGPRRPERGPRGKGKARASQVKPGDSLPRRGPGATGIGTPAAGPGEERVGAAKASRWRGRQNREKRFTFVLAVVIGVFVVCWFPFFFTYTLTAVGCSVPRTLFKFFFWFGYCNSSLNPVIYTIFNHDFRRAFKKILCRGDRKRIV

[10] = test system: Receptor-type tyrosine-protein kinase FLT3 (Homo sapiens), P36888 [UNDEFINED MUTATION]; details: Compound concentration 1000.0 nM
[11] = target: Ribosomal protein S6 kinase alpha-4 (Homo sapiens) (UniProt O75676); details: Compound concentration 1000.0 nM
[12] = test system: Tyrosine-protein kinase ABL1 (Homo sapiens), P00519 [E255K]; details: Compound concentration 1000.0 nM
[13] = target: T1, 5-hydroxytryptamine receptor 1A (Homo sapiens); assay: 5-HT1A (h) Eurofins-Cerep Cellular and Nuclear Receptor Functional Assays; details: Compound concentration 10.0 uM
[14] = target: G protein-coupled receptor kinase 3 (Homo sapiens) (UniProt P35626); details: Compound concentration 1000.0 nM
[15] = target: NUAK family SNF1-like kinase 2 (Homo sapiens) (UniProt Q9H093); details: Compound concentration 1000.0 nM
[16] = target: Dual specificity tyrosine-phosphorylation-regulated kinase 1A (Homo sapiens) (UniProt Q13627); details: Compound concentration 1000.0 nM
[17] = target: RAF proto-oncogene serine/threonine-protein kinase (Homo sapiens) (UniProt P04049); details: Compound concentration 1000.0 nM
[18] = test system: Tyrosine-protein kinase ABL1 (Homo sapiens), P00519 [Q252H]; details: Compound concentration 1000.0 nM
[19] = target: Phosphatidylinositol 4,5-bisphosphate 3-kinase catalytic subunit delta isoform (Homo sapiens) (UniProt O00329); details: Compound concentration 1000.0 nM
[20] = target: Calcium/calmodulin-dependent protein kinase type II subunit alpha (Homo sapiens) (UniProt Q9UQM7); details: Compound concentration 1000.0 nM
[21] = target: Mitogen-activated protein kinase kinase kinase 9 (Homo sapiens) (UniProt P80192); details: Compound concentration 1000.0 nM
[22] = target: Ephrin type-B receptor 1 (Homo sapiens) (UniProt P54762); details: Compound concentration 1000.0 nM
[23] = target: Phosphatidylinositol 4,5-bisphosphate 3-kinase catalytic subunit beta isoform (Homo sapiens) (UniProt P42338); details: Compound concentration 1000.0 nM
[24] = target: LIM domain kinase 1 (Homo sapiens) (UniProt P53667); details: Compound concentration 1000.0 nM
[25] = target: Mitogen-activated protein kinase kinase kinase 20 (Homo sapiens) (UniProt Q9NYL2); details: Compound concentration 1000.0 nM
[26] = target: Serine/threonine-protein kinase ULK2 (Homo sapiens) (UniProt Q8IYT8); details: Compound concentration 1000.0 nM
[27] = target: Serine/threonine-protein kinase DCLK1 (Homo sapiens) (UniProt O15075); details: Compound concentration 1000.0 nM
[28] = test system: Leucine-rich repeat serine/threonine-protein kinase 2 (Homo sapiens), Q5S007 [G2019S]; details: Compound concentration 1000.0 nM
[29] = target: Misshapen-like kinase 1 (Homo sapiens) (UniProt Q8N4C8); details: Compound concentration 1000.0 nM
[30] = target: Serine/threonine-protein kinase Sgk2 (Homo sapiens) (UniProt Q9HBY8); details: Compound concentration 1000.0 nM
[31] = target: Serine/threonine-protein kinase LATS1 (Homo sapiens) (UniProt O95835); details: Compound concentration 1000.0 nM
[32] = target: Mitogen-activated protein kinase kinase kinase kinase 5 (Homo sapiens) (UniProt Q9Y4K4); details: Compound concentration 1000.0 nM
Chain of Mitogen-activated protein kinase kinase kinase kinase 5 (Homo sapiens) (Q9Y4K4 whole entry, looked up): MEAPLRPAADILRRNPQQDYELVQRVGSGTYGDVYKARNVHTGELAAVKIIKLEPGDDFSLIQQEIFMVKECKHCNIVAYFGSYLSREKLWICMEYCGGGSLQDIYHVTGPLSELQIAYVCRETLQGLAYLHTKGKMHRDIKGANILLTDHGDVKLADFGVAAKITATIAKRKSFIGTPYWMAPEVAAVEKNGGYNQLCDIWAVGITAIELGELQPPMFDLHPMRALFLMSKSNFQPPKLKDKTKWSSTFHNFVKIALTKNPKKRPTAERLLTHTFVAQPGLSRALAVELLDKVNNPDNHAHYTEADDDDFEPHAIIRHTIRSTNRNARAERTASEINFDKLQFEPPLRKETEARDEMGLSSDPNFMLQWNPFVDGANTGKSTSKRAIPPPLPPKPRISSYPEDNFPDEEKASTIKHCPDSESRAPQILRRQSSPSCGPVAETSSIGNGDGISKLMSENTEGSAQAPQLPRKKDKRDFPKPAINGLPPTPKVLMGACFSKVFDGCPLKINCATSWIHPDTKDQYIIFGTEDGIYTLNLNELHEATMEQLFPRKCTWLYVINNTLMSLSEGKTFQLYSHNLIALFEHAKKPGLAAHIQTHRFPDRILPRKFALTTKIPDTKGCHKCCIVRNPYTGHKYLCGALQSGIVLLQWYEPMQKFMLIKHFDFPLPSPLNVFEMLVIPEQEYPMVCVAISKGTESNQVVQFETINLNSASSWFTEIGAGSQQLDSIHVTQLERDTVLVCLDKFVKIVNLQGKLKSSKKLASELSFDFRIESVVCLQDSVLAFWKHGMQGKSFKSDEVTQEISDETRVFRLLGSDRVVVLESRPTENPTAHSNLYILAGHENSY

Chain of Ephrin type-B receptor 1 (Homo sapiens) (P54762 whole entry, canonical isoform): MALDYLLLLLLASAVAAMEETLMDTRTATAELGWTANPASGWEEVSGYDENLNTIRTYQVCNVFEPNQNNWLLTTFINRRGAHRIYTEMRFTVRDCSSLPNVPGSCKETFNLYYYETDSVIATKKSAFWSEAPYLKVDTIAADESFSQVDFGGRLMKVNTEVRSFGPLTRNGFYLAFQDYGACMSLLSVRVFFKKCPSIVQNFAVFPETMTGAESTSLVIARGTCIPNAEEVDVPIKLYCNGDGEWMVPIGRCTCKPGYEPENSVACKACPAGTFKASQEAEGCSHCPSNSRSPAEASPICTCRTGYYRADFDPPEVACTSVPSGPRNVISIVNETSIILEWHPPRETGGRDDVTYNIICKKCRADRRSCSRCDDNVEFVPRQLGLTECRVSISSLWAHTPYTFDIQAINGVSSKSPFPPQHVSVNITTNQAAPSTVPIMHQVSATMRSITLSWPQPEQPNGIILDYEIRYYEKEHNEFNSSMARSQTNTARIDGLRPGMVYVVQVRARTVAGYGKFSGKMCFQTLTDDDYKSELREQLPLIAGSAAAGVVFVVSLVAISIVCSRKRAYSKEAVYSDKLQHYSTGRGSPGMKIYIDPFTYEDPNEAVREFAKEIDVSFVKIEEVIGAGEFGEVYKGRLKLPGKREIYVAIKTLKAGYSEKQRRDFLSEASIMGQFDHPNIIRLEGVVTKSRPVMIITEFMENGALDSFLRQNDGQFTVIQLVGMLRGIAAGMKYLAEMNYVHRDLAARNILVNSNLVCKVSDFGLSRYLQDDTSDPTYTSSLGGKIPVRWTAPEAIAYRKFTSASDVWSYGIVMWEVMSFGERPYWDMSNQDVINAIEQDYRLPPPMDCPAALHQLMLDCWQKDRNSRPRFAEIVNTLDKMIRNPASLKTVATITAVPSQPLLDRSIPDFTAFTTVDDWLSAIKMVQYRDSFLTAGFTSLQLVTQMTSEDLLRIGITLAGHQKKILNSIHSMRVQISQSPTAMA
Chain of Misshapen-like kinase 1 (Homo sapiens) (Q8N4C8 whole entry, looked up): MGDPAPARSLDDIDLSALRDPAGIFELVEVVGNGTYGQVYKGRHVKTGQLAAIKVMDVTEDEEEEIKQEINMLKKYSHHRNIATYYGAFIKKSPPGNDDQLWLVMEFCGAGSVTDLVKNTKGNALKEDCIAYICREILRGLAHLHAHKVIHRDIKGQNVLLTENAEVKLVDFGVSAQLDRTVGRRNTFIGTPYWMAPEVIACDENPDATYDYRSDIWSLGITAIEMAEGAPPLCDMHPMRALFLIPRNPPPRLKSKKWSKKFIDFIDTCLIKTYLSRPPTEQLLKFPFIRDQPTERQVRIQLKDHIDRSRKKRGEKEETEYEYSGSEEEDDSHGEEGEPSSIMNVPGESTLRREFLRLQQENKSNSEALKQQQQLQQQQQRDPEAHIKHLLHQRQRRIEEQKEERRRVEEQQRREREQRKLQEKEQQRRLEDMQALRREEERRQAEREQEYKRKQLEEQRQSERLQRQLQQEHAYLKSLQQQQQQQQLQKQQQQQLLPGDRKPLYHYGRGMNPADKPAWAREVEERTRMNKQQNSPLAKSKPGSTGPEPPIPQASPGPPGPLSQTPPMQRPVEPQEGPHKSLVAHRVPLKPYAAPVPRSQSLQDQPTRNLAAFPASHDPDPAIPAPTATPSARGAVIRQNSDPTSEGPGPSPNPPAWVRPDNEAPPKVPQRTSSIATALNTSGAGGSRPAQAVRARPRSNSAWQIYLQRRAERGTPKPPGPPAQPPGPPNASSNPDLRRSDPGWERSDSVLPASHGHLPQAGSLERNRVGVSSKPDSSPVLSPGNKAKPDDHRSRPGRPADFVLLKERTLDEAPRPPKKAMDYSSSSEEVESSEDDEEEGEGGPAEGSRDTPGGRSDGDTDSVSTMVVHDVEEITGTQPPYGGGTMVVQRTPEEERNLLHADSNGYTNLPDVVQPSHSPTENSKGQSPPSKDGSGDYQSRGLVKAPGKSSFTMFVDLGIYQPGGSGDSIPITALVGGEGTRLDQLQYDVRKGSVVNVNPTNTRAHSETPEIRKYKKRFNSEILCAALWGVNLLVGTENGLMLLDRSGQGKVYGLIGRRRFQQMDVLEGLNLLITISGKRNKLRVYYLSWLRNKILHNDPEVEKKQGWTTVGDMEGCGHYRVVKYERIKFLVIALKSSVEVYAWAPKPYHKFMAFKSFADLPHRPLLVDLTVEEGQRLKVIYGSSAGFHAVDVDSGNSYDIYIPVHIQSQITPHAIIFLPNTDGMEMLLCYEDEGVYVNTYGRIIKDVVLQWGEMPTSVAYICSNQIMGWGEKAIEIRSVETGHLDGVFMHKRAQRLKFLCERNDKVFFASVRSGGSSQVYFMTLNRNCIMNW
Chain of G protein-coupled receptor kinase 3 (Homo sapiens) (P35626 whole entry): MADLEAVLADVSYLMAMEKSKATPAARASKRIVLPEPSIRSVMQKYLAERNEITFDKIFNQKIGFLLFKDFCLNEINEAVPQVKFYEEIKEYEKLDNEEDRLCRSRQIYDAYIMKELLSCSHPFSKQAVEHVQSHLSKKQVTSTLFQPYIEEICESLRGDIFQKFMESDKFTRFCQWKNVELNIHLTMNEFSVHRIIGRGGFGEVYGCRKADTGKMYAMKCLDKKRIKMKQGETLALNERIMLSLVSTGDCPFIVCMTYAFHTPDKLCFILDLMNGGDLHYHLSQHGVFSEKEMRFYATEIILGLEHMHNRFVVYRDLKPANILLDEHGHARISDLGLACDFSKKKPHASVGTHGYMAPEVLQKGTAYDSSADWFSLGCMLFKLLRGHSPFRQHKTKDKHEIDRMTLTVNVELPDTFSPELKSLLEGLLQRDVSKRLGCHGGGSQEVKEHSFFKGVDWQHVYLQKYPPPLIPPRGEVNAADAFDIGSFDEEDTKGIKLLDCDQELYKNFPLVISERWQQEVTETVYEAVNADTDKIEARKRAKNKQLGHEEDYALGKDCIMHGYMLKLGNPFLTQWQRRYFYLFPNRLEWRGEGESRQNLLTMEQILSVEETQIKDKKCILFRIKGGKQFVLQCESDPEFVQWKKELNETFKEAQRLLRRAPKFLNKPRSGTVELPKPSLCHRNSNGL
Chain of Mitogen-activated protein kinase kinase kinase 9 (Homo sapiens) (P80192 whole entry, looked up): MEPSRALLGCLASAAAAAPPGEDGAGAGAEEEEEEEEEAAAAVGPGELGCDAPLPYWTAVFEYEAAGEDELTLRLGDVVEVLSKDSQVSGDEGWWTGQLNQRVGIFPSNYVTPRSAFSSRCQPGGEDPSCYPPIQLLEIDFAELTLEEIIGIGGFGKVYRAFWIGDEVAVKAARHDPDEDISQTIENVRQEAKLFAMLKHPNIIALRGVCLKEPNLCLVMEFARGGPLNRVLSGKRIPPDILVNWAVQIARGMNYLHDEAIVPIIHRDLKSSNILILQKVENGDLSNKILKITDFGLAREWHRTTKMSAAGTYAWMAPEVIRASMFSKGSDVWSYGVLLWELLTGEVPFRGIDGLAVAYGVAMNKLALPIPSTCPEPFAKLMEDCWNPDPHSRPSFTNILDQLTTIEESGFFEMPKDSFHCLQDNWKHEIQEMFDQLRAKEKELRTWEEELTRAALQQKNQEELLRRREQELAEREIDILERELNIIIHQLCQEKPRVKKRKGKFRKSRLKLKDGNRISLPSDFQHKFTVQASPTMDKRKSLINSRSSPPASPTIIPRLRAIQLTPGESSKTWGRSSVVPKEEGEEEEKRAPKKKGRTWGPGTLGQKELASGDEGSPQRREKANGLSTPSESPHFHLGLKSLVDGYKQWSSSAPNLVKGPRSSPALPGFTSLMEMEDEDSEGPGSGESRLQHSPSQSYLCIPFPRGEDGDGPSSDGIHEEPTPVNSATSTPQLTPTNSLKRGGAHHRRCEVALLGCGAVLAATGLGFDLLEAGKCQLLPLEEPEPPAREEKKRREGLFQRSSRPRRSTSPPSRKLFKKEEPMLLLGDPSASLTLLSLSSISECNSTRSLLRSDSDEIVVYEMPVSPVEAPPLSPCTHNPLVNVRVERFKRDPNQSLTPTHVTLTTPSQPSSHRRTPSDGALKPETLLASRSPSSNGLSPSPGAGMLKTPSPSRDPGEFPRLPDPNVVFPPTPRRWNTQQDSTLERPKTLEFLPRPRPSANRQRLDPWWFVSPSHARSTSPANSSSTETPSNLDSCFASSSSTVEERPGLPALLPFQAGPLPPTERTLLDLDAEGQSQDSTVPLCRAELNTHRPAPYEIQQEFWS

SMILES	residual activity [1] [%]	residual activity [2] [%]	residual activity [3] [%]	residual activity [4] [%]	residual activity [5] [%]	residual activity [6] [%]	residual activity [7] [%]	inhibition [8] [%]	% Inhibition of Control Agonist Response (Mean n=2) [9] [%]	% of Control Agonist Response (Mean n=2) [9] [%]	residual activity [10] [%]	residual activity [11] [%]	residual activity [12] [%]	% Inhibition of Control Agonist Response (Mean n=2) [13] [%]	% of Control Agonist Response (Mean n=2) [13] [%]	residual activity [14] [%]	residual activity [15] [%]	residual activity [16] [%]	residual activity [17] [%]	residual activity [18] [%]	further results
O=C(N1CCS(=O)(=O)CC1)N1C[C@H](c2ccc(OC(F)(F)F)cc2)C[C@H](c2nc(C3CC3)no2)C1 [BAY-386]	59	100	79	98	100	95	100	14.7	-1.7	6.3	100	82	100	25.6	-0.2	100	100	100	100	100	residual activity [19]: 97%; residual activity [20]: 100%; residual activity [21]: 100%; residual activity [22]: 100%; residual activity [23]: 66%; residual activity [24]: 100%; residual activity [25]: 100%; residual activity [26]: 75%; residual activity [27]: 100%; residual activity [28]: 100%; residual activity [29]: 99%; residual activity [30]: 76%; residual activity [31]: 100%; residual activity [32]: 100%
Cc1noc([C@H]2C[C@@H](c3ccc(C(F)(F)F)cc3)CN(C(=O)N3CCS(=O)(=O)C3)C2)n1 [BAY-448]	96	99	100	100	78	100	100	-4.52	-13.5	2.5	89	100	100	-23	1.1	100	100	100	100	100	residual activity [19]: 100%; residual activity [20]: 100%; residual activity [21]: 100%; residual activity [22]: 100%; residual activity [23]: 99%; residual activity [24]: 100%; residual activity [25]: 87%; residual activity [26]: 100%; residual activity [27]: 75%; residual activity [28]: 94%; residual activity [29]: 100%; residual activity [30]: 100%; residual activity [31]: 100%; residual activity [32]: 100%
